From US20040220148A1, “5-Membered ring heterocycles as inhibitors of leucocyte adhesion and as VLA-4 antagonists” (Aventis Pharma Deutschland GmbH, priority 1996, published 2004) come the findings set out here.

Structures are written as SMILES.

T1 sequence (P13612 34-1032): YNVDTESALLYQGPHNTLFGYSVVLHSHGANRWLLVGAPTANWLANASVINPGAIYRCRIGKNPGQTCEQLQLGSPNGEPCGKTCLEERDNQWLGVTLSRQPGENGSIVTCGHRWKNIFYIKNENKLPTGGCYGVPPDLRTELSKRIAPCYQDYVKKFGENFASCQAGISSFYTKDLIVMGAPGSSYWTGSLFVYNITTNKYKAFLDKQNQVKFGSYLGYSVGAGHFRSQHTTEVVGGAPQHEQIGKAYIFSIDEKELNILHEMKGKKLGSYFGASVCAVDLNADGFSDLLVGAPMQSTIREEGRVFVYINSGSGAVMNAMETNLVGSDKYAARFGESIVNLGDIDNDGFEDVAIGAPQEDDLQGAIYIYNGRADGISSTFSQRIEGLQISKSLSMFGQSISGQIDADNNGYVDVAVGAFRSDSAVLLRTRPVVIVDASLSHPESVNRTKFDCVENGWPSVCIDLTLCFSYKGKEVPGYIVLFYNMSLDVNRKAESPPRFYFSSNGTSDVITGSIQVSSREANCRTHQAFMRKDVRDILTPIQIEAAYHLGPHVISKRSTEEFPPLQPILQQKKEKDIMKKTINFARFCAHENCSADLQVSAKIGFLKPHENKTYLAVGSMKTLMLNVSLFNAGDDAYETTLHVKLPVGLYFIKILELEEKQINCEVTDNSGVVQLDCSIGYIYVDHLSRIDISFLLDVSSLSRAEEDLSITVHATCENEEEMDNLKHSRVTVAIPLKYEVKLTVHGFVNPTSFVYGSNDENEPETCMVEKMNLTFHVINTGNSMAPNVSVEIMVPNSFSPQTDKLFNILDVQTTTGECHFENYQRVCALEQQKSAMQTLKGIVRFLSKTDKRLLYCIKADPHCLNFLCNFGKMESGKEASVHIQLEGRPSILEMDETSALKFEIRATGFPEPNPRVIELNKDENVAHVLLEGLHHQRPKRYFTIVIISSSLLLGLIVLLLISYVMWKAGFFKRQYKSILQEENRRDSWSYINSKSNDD
T1 sequence (P05556 21-798): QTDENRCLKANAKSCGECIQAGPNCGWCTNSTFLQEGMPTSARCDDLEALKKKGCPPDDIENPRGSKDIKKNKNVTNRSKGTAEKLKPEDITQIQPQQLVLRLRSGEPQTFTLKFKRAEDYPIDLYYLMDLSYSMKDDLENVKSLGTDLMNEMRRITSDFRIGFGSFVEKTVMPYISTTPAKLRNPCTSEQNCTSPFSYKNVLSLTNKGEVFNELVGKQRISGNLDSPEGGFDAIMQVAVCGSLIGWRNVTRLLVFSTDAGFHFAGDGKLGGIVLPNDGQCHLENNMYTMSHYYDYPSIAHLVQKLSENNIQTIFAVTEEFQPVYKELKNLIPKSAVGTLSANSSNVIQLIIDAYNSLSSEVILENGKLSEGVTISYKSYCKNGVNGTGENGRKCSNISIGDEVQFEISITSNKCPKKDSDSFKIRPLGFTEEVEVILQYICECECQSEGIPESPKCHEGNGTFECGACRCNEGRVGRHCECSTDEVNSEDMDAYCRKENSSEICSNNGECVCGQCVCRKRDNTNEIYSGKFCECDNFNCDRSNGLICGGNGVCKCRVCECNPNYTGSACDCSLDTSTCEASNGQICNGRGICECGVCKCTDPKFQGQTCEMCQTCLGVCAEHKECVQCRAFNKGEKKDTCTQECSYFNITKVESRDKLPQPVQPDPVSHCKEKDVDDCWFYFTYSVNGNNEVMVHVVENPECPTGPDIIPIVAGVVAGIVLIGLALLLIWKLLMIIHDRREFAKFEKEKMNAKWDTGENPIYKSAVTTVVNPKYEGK

This experiment has as its target T1, VLA-4 integrins on human U937 cells (interaction between VCAM-1 and VLA-4) (Homo sapiens, UniProt P05556+P13612).
T1 construct: the VLA-4 integrins, are offered in their natural form as surface molecules on human U937 cells; host or cells: U937 cells (VLA-4, endogenous); the partner hVCAM-1(1-3)-IgG came from the supernatant of transfected COS cells (ATCC CRL1651)
Briefly: U937/VCAM-1 cell adhesion test (adhesion of U937 cells to hVCAM-1(1-3)-IgG). It is filed as cell-based. The following applies: concentration leading to 50% inhibition of adhesion. From the text: As a test method for the activity of the compounds of the formula I on the interaction between VCAM-1 and VLA-4, an assay which is specific for this interaction is used. The cellular binding components, i.e. the VLA-4 integrins, are offered in their natural form as surface molecules on human U937 cells (ATCC CRL 1593) which belong to the group of leucocytes. As specific binding components, recombinant soluble fusion proteins prepared by genetic engineering and consisting of the extracytoplasmic domains of human VCAM-1 and the constant region of a human immunoglobulin of the subclass IgG1 are used.
Assay for the Measurement of the Adhesion of U937 Cells (ATCC CRL 1593) to hVCAM-1 (1-3)-IgG
1. Preparation of Human VCAM-1(1-3)-IgG and Human CD4-IgG
A genetic construct for the expression of the extracellular domains of human VCAM-1 was employed, associated with the genetic sequence of the heavy chain of human immunoglobulin IgG1 (hinge, CH2 and CH3 regions), from Dr. Brian Seed, Massachusetts General Hospital, Boston, USA. The soluble fusion protein hVCAM-1(1-3)-IgG contained the three amino-terminal extracellular immunoglobulin-like domains of human VCAM-1 (Damle and Aruffo, Proc. Natl. Acad. Sci. USA 1991, 88, 6403). CD4-IgG (Zettlmeissl et al, DNA and Cell Biology 1990, 9, 347) served as a fusion protein for negative controls. The recombinant proteins were expressed as soluble proteins after DEAE/dextran-mediated DNA-transfection in COS cells (ATCC CRL1651) according to standard procedures (Ausubel et al., Current protocols in molecular biology, John Wiley & Sons, Inc., 1994).
2. Assay for Measurement of the Adhesion of U937 Cells to hVCAM-1(1-3)-IgG
2.1 96-well microtiter test plates (Nunc Maxisorb) were incubated at room temperature for 1 hour with 100 μl/well of a goat-anti-human IgG antibody solution (10 μg/ml in 50 mM tris, pH 9.5). After removing the antibody solution, washing was carried out once with PBS.
2.2 150 μl/well of a blocking buffer (1% BSA in PBS) were incubated on the plates at room temperature for 0.5 hours. After removing the blocking buffer, washing was carried out once with PBS.
2.3 100 μl per well of a cell culture supernatant of transfected COS cells were incubated on the plates at room temperature for 1.5 hours. The COS cells were transfected with a plasmid which codes for the three N-terminal immunoglobulin-like domains of VCAM-1, coupled to the Fc part of human IgG1 (hVCAM-1(1-3)-IgG). The content of hVCAM-1 (1-3)-IgG was about […]. After removing the culture supernatant, washing was carried out once with PBS.
2.4 The plates were incubated at room temperature for 20 minutes with […] of Fc receptor blocking buffer (1 mg/ml of γ-globulin, 100 mM NaCl, 100 μM MgCl2, 100 μM MnCl2, 100 μM CaCl2, 1 mg/ml BSA in 50 mM HEPES, pH 7.5). After removing the Fc receptor blocking buffer, washing was carried out once with PBS.
2.5 20 μl of binding buffer (100 mM NaCl, 100 μM MgCl2, 100 μM MgCl2, 100 μM CaCl2, 1 mg/ml BSA in 50 mM HEPES, pH 7.5), were initially introduced, the substances to be tested were added in 10 μl of binding buffer and the mixture was incubated for 20 minutes. As controls, antibodies against VCAM-1 (BBT, No. BBA6) and against VLA-4
(Immunotech, No. 0764) were used.
2.6 U937 cells were incubated in Fc receptor blocking buffer for 20 minutes and then pipetted in at a concentration of 1×10^6/ml and in an amount of 100 μl per well ([…]).
2.7 The plates were slowly immersed at an angle of 45° in stop buffer (100 mM NaCl, 100 μM MgCl2, 100 μM MnCl2, 100 μM CaCl2 in 25 mM Tris, pH 7.5) and shaken off. The process was repeated.
2.8 50 μl/well of a dye solution (16.7 μg/ml of Hoechst dye 33258, 4% formaldehyde, 0.5% Triton X-100 in PBS) were then incubated on the plates for 15 minutes.
2.9 The plates were shaken off and slowly immersed at an angle of 45° in stop buffer (100 mM NaCl, 100 μM MgCl2, 100 μM MnCl2, 100 μM CaCl2 in 25 mM Tris, pH 7.5). The process was repeated. […]
Turning to `CC1(c2ccc(C(=N)N)cc2)C(=O)N(CC(=O)N[C@@H](CC(=O)O)C(=O)N[C@H](C(=O)O)c2ccccc2)C(=O)N1Cc1cc(C(F)(F)F)cc(C(F)(F)F)c1` (mixture of isomers) [Example 16, ((R,S)-4-(4-(Amino-imino-methyl)phenyl)-3-(3,5-bis(trifluoromethyl)benzyl)4-methyl-2,5-dioxoimidazolidin-1-yl)acetyl-L-aspartyl-L-phenylglycine], the IC50 – broadly, the concentration that inhibits the measured activity by half – came out at 30 µM.

The compound `CC1(c2ccc(C(=N)N)cc2)C(=O)N(CC(=O)N[C@@H](CC(=O)O)C(=O)N[C@H](C(=O)O)c2ccccc2)C(=O)N1Cc1ccc([N+](=O)[O-])cc1` (mixture of isomers) [Example 7, ((R,S)-4-(4-(Amino-imino-methyl)phenyl)-3-(4-nitrobenzyl)-4-methyl-2,5-dioxoimidazolidin-1-yl)acetyl-L-aspartyl-L-phenylglycine] registered an IC50 of 25 µM.

With `CC1(c2ccc(NC(=N)N)cc2)C(=O)N(CC(=O)N[C@@H](CC(=O)O)C(=O)N[C@H](C(=O)O)c2ccccc2)C(=O)N1Cc1ccccc1` (stereo partly drawn) [Example 71, ((R,S)-4-(4-Guanidinophenyl)-3-benzyl-4-methyl-2,5-dioxoimidazolidin-1-yl)acetyl-Laspartyl-L-phenylglycine], the IC50 stood at 3.25 µM.

In the case of `Cc1ccc(CN2C(=O)N(CC(=O)N[C@@H](CC(=O)O)C(=O)N[C@H](C(=O)O)c3ccccc3)C(=O)C2(C)c2ccc(C(=N)N)cc2)cc1` (mixture of isomers) [Example 12, ((R,S)-4-(4-(Amino-imino-methyl)phenyl)-3-(4-methylbenzyl)-4-methyl-2,5-dioxoimidazolidin-1-yl)acetyl-L-aspartyl-L-phenylglycine], half-maximal inhibition (IC50) required 2.7 µM.
